Values joined by “and” are separate entries in the source; they are usually repeats but may differ in a detail not shown here. Equal values may be shown once. Inconclusive results and toxic doses are left out. *1 amine or outer side, *2 acyl side, *3 side chain or, on linkers, in order; H or OH if unused. Where a SMILES comes first, the peptide text is derived from it. Bridges are numbered along the chain shown (N, C = ends). Roman numbers before positions name the chains, in order. [ ]: non-standard residue; d: D form. Actinocin(9to1) = Cc1c2oc3c(C)ccc(C(=O)[*:1])c3nc-2c(C(=O)[*:2])c(N)c1=O; aThr = C[C@H](O)[C@H](N)C(=O)O; NMeV = CN[C@H](C(=O)O)C(C)C; Sar = CNCC(=O)O
Test system: BDF1 mice, L1210 Methyl-GAG-resistant leukemia, survival T/C
Assay: NCI In Vivo Anticancer Drug Screen. Data for tumor model L1210 Leukemia resistant to Methyl-GAG; NSC 32946 (subcutaneous) in B6D2F1 (BDF1) mice
Conditions: endpoint: mean survival time, higher = longer survival
Protocol: The antitumor activity of compounds was measured in mice bearing transplantable tumors. Survival or tumor size were measured and the results are expressed as the measurement made in the treated group (T) divided by the measurement made in the vehicle treated control group (C). The tumor model used in this assay is L1210 Leukemia resistant to Methyl-GAG; NSC 32946 (subcutaneous) in B6D2F1 (BDF1) mice

[1] = dose: 4.0 mg/kg/injection, schedule: Q01DX Z (ip), vehicle: carboxymethylcellulose (CMC)
[2] = dose: 2.5 mg/kg/injection, schedule: Q01DX Z (ip), vehicle: carboxymethylcellulose (CMC)
[3] = dose: 5.0 mg/kg/injection, schedule: Q01DX Z (ip), vehicle: carboxymethylcellulose (CMC)
[4] = dose: 10.0 mg/kg/injection, schedule: Q01DX Z (ip), vehicle: carboxymethylcellulose (CMC)
[5] = dose: 20.0 mg/kg/injection, schedule: Q01DX Z (ip), vehicle: carboxymethylcellulose (CMC)

CC(=O)[C@H]1CC[C@H]2[C@@H]3C[C@H](C)C4=CC(=O)CC[C@]4(C)[C@H]3C(=O)C[C@]12C
T/C (dose: 25.0 mg/kg/injection, schedule: Q01DX Z (sc), vehicle: steriod suspending solution): 97 % of control | T/C (dose: 50.0 mg/kg/injection, schedule: Q01DX Z (sc), vehicle: steriod suspending solution): 95 % of control and 103 % of control | T/C (dose: 100.0 mg/kg/injection, schedule: Q01DX Z (sc), vehicle: steriod suspending solution): 97 % of control and 103 % of control and 114 % of control | T/C (dose: 200.0 mg/kg/injection, schedule: Q01DX Z (sc), vehicle: steriod suspending solution): 90 % of control and 105 % of control and 111 % of control | T/C (dose: 400.0 mg/kg/injection, schedule: Q01DX Z (sc), vehicle: steriod suspending solution): 105 % of control and 112 % of control | T/C (dose: 800.0 mg/kg/injection, schedule: Q01DX Z (sc), vehicle: steriod suspending solution): 120 % of control

Nc1nc(=S)c2[nH]cnc2[nH]1
T/C (dose: 0.12 mg/kg/injection, schedule: Q01DX Z (ip), vehicle: carboxymethylcellulose (CMC)): 98 % of control | T/C (dose: 0.25 mg/kg/injection, schedule: Q01DX Z (ip), vehicle: carboxymethylcellulose (CMC)): 93 % of control | T/C (dose: 0.5 mg/kg/injection, schedule: Q01DX Z (ip), vehicle: carboxymethylcellulose (CMC)): 96 % of control | T/C (dose: 2.0 mg/kg/injection, schedule: Q01DX Z (ip), vehicle: carboxymethylcellulose (CMC)): 164 % of control and 168 % of control | T/C [1]: 118 % of control

COS(C)(=O)=O
T/C (dose: 12.5 mg/kg/injection, schedule: Q01DX Z (ip), vehicle: water): 101 % of control | T/C (dose: 25.0 mg/kg/injection, schedule: Q01DX Z (ip), vehicle: water): 98 % of control and 99 % of control | T/C (dose: 50.0 mg/kg/injection, schedule: Q01DX Z (ip), vehicle: water): 103 % of control and 112 % of control

S=c1nc[nH]c2nc[nH]c12
T/C (dose: 12.5 mg/kg/injection, schedule: Q01DX Z (ip), vehicle: other): 107 % of control | T/C (dose: 37.5 mg/kg/injection, schedule: Q01DX Z (ip), vehicle: other): 252 % of control | T/C (dose: 50.0 mg/kg/injection, schedule: Q01DX Z (ip), vehicle: other): 153 % of control and 192 % of control | T/C (dose: 75.0 mg/kg/injection, schedule: Q01DX Z (ip), vehicle: other): 157 % of control | T/C (dose: 100.0 mg/kg/injection, schedule: Q01DX Z (ip), vehicle: other): 164 % of control | T/C (dose: 200.0 mg/kg/injection, schedule: Q01DX Z (ip), vehicle: other): 97 % of control and 119 % of control | T/C (dose: 300.0 mg/kg/injection, schedule: Q01DX Z (ip), vehicle: other): 98 % of control

CC1CCOS(=O)O1 (stereo not given)
T/C [2]: 95 % of control | T/C [3]: 101 % of control | T/C [4]: 97 % of control | T/C [5]: 97 % of control | T/C (dose: 40.0 mg/kg/injection, schedule: Q01DX Z (ip), vehicle: carboxymethylcellulose (CMC)): 95 % of control | T/C (dose: 80.0 mg/kg/injection, schedule: Q01DX Z (ip), vehicle: carboxymethylcellulose (CMC)): 92 % of control

C[C@]12CC[C@H](OC3OC(CO)C(O)C(O)C3O)C[C@H]1CC[C@@H]1[C@@H]2CC[C@]2(C)[C@@H](C3=CCOC3=O)CC[C@]12O (stereo not given in full)
T/C (dose: 0.06 mg/kg/injection, schedule: Q01DX Z (ip), vehicle: saline): 94 % of control | T/C (dose: 0.12 mg/kg/injection, schedule: Q01DX Z (ip), vehicle: saline): 92 % of control | T/C (dose: 0.25 mg/kg/injection, schedule: Q01DX Z (ip), vehicle: saline): 91 % of control | T/C (dose: 0.5 mg/kg/injection, schedule: Q01DX Z (ip), vehicle: saline): 91 % of control | T/C (dose: 4.0 mg/kg/injection, schedule: Q01DX Z (ip), vehicle: saline): 90 % of control | T/C (dose: 16.0 micrograms/kg/injection, schedule: Q01DX Z (ip), vehicle: saline): 97 % of control | T/C (dose: 32.0 micrograms/kg/injection, schedule: Q01DX Z (ip), vehicle: saline): 102 % of control | T/C (dose: 1000.0 micrograms/kg/injection, schedule: Q01DX Z (ip), vehicle: saline): 107 % of control | T/C (dose: 2000.0 micrograms/kg/injection, schedule: Q01DX Z (ip), vehicle: saline): 105 % of control

CS(=O)(=O)OCC(O)C(O)COS(C)(=O)=O (stereo not given)
T/C (dose: 99.0 mg/kg/injection, schedule: Q01DX Z (ip), vehicle: saline): 101 % of control | T/C (dose: 188.0 mg/kg/injection, schedule: Q01DX Z (ip), vehicle: saline): 101 % of control | T/C (dose: 375.0 mg/kg/injection, schedule: Q01DX Z (ip), vehicle: saline): 101 % of control | T/C (dose: 750.0 mg/kg/injection, schedule: Q01DX Z (ip), vehicle: saline): 117 % of control and 120 % of control | T/C (dose: 1500.0 mg/kg/injection, schedule: Q01DX Z (ip), vehicle: saline): 109 % of control and 120 % of control | T/C (dose: 3000.0 mg/kg/injection, schedule: Q01DX Z (ip), vehicle: saline): 112 % of control

Cc1c2oc3c(C)ccc(C(=O)N[C@@H]4C(=O)N[C@H](C(C)C)C(=O)N5CCC[C@H]5C(=O)N(C)CC(=O)N(C)[C@@H](C(C)C)C(=O)O[C@H]4C)c3nc-2c(C(=O)N[C@@H]2C(=O)N[C@H](C(C)C)C(=O)N3CCC[C@H]3C(=O)N(C)CC(=O)N(C)[C@@H](C(C)C)C(=O)O[C@H]2C)c(N)c1=O (I: [aThr][dV]P[Sar][NMeV] / II: [aThr][dV]P[Sar][NMeV]; ester I:1-I:C, II:1-II:C; linker I:N-II:N via Actinocin(9to1))
T/C (dose: 0.8 micrograms/kg/injection, schedule: Q01DX Z (ip), vehicle: saline): 96 % of control | T/C (dose: 6.4 micrograms/kg/injection, schedule: Q01DX Z (ip), vehicle: saline): 93 % of control | T/C (dose: 25.6 micrograms/kg/injection, schedule: Q01DX Z (ip), vehicle: saline): 96 % of control | T/C (dose: 51.2 micrograms/kg/injection, schedule: Q01DX Z (ip), vehicle: saline): 98 % of control | T/C (dose: 102.0 micrograms/kg/injection, schedule: Q01DX Z (ip), vehicle: saline): 90 % of control

O=C1CCC(N2C(=O)c3ccccc3C2=O)C(=O)N1 (stereo not given)
T/C (dose: 18.75 mg/kg/injection, schedule: Q01DX Z (ip), vehicle: carboxymethylcellulose (CMC)): 96 % of control | T/C (dose: 37.5 mg/kg/injection, schedule: Q01DX Z (ip), vehicle: carboxymethylcellulose (CMC)): 102 % of control | T/C (dose: 75.0 mg/kg/injection, schedule: Q01DX Z (ip), vehicle: carboxymethylcellulose (CMC)): 102 % of control | T/C (dose: 150.0 mg/kg/injection, schedule: Q01DX Z (ip), vehicle: carboxymethylcellulose (CMC)): 94 % of control

O=c1[nH]cc(F)c(=O)[nH]1
T/C (dose: 6.25 mg/kg/injection, schedule: Q01DX Z (ip), vehicle: saline): 102 % of control | T/C (dose: 100.0 mg/kg/injection, schedule: Q01DX Z (ip), vehicle: saline): 110 % of control

Cn1c(N)nc2nc[nH]c2c1=S
T/C (dose: 1.6 mg/kg/injection, schedule: Q01DX Z (ip), vehicle: carboxymethylcellulose (CMC)): 98 % of control | T/C (dose: 3.1 mg/kg/injection, schedule: Q01DX Z (ip), vehicle: carboxymethylcellulose (CMC)): 100 % of control and 104 % of control | T/C (dose: 6.25 mg/kg/injection, schedule: Q01DX Z (ip), vehicle: carboxymethylcellulose (CMC)): 97 % of control and 102 % of control | T/C (dose: 12.5 mg/kg/injection, schedule: Q01DX Z (ip), vehicle: carboxymethylcellulose (CMC)): 93 % of control and 98 % of control and 102 % of control | T/C (dose: 25.0 mg/kg/injection, schedule: Q01DX Z (ip), vehicle: carboxymethylcellulose (CMC)): 102 % of control | T/C (dose: 50.0 mg/kg/injection, schedule: Q01DX Z (ip), vehicle: carboxymethylcellulose (CMC)): 100 % of control and 111 % of control | T/C (dose: 100.0 mg/kg/injection, schedule: Q01DX Z (ip), vehicle: carboxymethylcellulose (CMC)): 101 % of control | T/C (dose: 200.0 mg/kg/injection, schedule: Q01DX Z (ip), vehicle: carboxymethylcellulose (CMC)): 97 % of control

COC12C(COC(N)=O)C3=C(C(=O)C(C)=C(N)C3=O)N1CC1C2N1C (stereo not given)
T/C [2]: 96 % of control | T/C [3]: 103 % of control | T/C [4]: 122 % of control | T/C [5]: 88 % of control

CCCCNc1ncnc2c1cnn2C
T/C [1]: 106 % of control | T/C (dose: 8.0 mg/kg/injection, schedule: Q01DX Z (ip), vehicle: carboxymethylcellulose (CMC)): 106 % of control | T/C (dose: 8.8 mg/kg/injection, schedule: Q01DX Z (ip), vehicle: carboxymethylcellulose (CMC)): 102 % of control | T/C (dose: 15.6 mg/kg/injection, schedule: Q01DX Z (ip), vehicle: carboxymethylcellulose (CMC)): 110 % of control | T/C (dose: 31.0 mg/kg/injection, schedule: Q01DX Z (ip), vehicle: carboxymethylcellulose (CMC)): 112 % of control | T/C (dose: 31.2 mg/kg/injection, schedule: Q01DX Z (ip), vehicle: carboxymethylcellulose (CMC)): 107 % of control | T/C (dose: 62.5 mg/kg/injection, schedule: Q01DX Z (ip), vehicle: carboxymethylcellulose (CMC)): 100 % of control | T/C (dose: 125.0 mg/kg/injection, schedule: Q01DX Z (ip), vehicle: carboxymethylcellulose (CMC)): 98 % of control

N#[N+]c1cnc([O-])[nH]c1=O
T/C [3]: 88 % of control | T/C [4]: 88 % of control

Source: PubChem BioAssay AID306 (DTP/NCI, 2004)
